This is an account of results in patent US20230000876A1, “TREATING CANCERS WITH A CYCLIN-DEPENDENT KINASE INHIBITOR” (Nuvation Bio Inc., priority 2021, published 2023).

The term GI50 denotes the concentration that inhibits growth by half.

What all share (assay type): cell-based
For one assay, the system named is KM12-luc. Nature of the assay: CellTiter-Glo anti-proliferation assay, KM12-luc. As for the experimental part:
(§1) The anti-proliferation effect of 2 compounds (the compound of formula (I) and temozolomide) in 7 CNS metastasis cell lines (MOLT-4-luc, Nalm-6-luc, NCI-H460-luc, ACHN-luc2, PC-9-luc, H1975-luc, and KM12-luc) was evaluated.
(§2) The plating of cells and compound treatments are shown below in the plate map (Table 12). One plate was needed for the test of 2 compounds (the compound of formula (I) and temozolomide) in one cell line. The compound of formula (I) was tested from 10 μM, 3-fold serial dilution. Temozolomide was tested from 100 μM, 3-fold serial dilution.
(§3) All the cell lines were maintained in culture conditions at 37° C. in an atmosphere with 5% CO2 in air. The tumor cells were routinely subcultured. The cells growing in an exponential growth phase were harvested and counted for plating.
(§4) Cells were counted by haemocytometer with Trypan blue staining. Next, 135 μL of cell suspension were plated into the assay plates according to the plate map and 135 μL of assay medium into the blank wells. The plates were incubated at 37° C., 5% CO2, 95% air and 100% relative humidity overnight.
(§5) 4.4.4 Compound Plate (10×) Preparation and Compound Treatment • 10× concentrate compound plate preparation: Add 198 μL of assay medium into each well of the V-bottom plate; then transfer 2 μL of the stock compound solution of each concentration from the stock plate. Add 2 μL of DMSO into the Blank and Control wells. Pipette up and down to mix well. This V-plate is designated as the 10× concentrate compound plate. • For day 0 plate, add 15 μL of the DMSO-medium into the Control wells. The final DMSO concentration was 0.1%. Then directly proceed to cell viability assay. • For assay plate, add 15 μL of the compound-medium of each well from the 10× concentrate compound plate into the cells in 96-well assay plate according to the plate map. Add 15 μL of the DMSO-medium into the Blank and Control wells. The final DMSO concentration was 0.1%. • Return the assay plate into incubator and incubate for 6 days.
(§6) The procedures were performed according to the Promega CellTiter-Glo Luminescent Cell Viability Assay Kit manual (Promega-G7573). • The CellTiter-Glo buffer was thawed and equilibrated to room temperature prior to use. • CellTiter-Glo Substrate was equilibrated to room temperature prior to use. • The entire liquid volume of CellTiter-Glo Buffer was transferred into the amber bottle containing CellTiter-Glo Substrate to reconstitute the lyophilized enzyme/substrate mixture. This forms the CellTiter-Glo Reagent. • The contents were mixed by gently vortexing to obtain a homogeneous solution. • The plate was equilibrated and its contents to room temperature for approximately 30 minutes. 75 μL (equal to the half volume of culture medium present in each well) CellTiter-Glo • Reagent was added in each well. Plates were covered with aluminum foil to protect from light. • The contents were mixed for 2 minutes on an orbital shaker to induce cell lysis. • The plate was incubated at room temperature for 20 minutes to stabilize luminescent signal. • Record luminescence on the 2104 EnVision plate reader.
(§7) Inhibition rate (IR) of the tested compounds was determined by the following formula: IR (%)=(1−(RLU compound−RLU day0)/(RLU control−RLU day0))*100%. The inhibitions of different dose of compound were calculated in Excel file, and then were used to plot inhibition curves and evaluate related parameters, such as Min (%), Max (%) and GI50. The data were interpreted by GraphPad Prism.
A general note: Cellular ATP, detected with luciferase, serves as a proxy for viable cell number.

In a further assay the test system is ACHN-luc2. Nature of the assay: CellTiter-Glo anti-proliferation assay, ACHN-luc2. As for the experimental part:
as §1, §2, §3, §4, §5, §6, §7

In the next assay the test system is Nalm-6-luc. Nature of the assay: CellTiter-Glo anti-proliferation assay, Nalm-6-luc. Here is the method: as §1, §2, §3, §4, §5, §6, §7
The test system of a further assay is A375. Description: Cell viability assay, melanoma cell line A375. As for the experimental part:
as §5
as §6, with “This forms the CellTiter-Glo Reagent. • The contents were mixed by gently vortexing to obtain a homogeneous solution. • The plate was equilibrated and its contents to room temperature for approximately 30 minutes. 75 μL (equal to the half volume of culture medium present in each well) CellTiter-Glo • Reagent was added in each well.” left out
Inhibition rate (IR) of the tested compounds was determined by the following formula: IR (%)=(1−(RLU compound−RLU day0)/(RLU control−RLU day0))*100%. The inhibitions of different dose of compound were calculated in Excel file, and then were used to plot inhibition curves and evaluate related parameters, such as Min (%), Max (%) and GI50. […]

[1] abbreviates: inhibition rate, 6 days, Compound (I) from 10 μM, temozolomide from 100 μM, 3-fold, 9 points.

Take `CC(C)N1CCOc2c(F)cc(-c3nc(Nc4ccc(C5CCN(C)CC5)cn4)ncc3F)cc21` [Compound (I), 5-fluoro-4-(8-fluoro-4-isopropyl-3,4-dihydro-2H-benzo[b][1,4]oxazin-6-yl)-N-(5-(1-methylpiperidin-4-yl)pyridin-2-yl)pyrimidin-2-amine]: the GI50 worked out at 654 nM in the assay on KM12-luc (KM12-Luc, 144 h, 6 days incubation, read-out: Absolute GI50); 47 nM with ACHN-luc2 (ACHN-luc2, 144 h, 6 days incubation, read-out: Absolute GI50); 154 nM in the assay with Nalm-6-luc (144 h, 6 days incubation, read-out: Absolute GI50); 156 nM with A375 (Homo sapiens, A-375, read-out: Absolute GI50). In addition, the “Max (%)” value in the assay with KM12-luc (setting [1]) is on record as 111.2%; in the assay with ACHN-luc2 (setting [1]), 102.9%; in the assay on Nalm-6-luc (setting [1]), 105.6%; in the assay on A375 (inhibition rate) it was 101.21%. The “Min (%)” value in the assay on KM12-luc (setting [1]) is reported as −15.2%; with ACHN-luc2 (setting [1]), 6.0%; in the assay on Nalm-6-luc (setting [1]), −20.8%; with A375 (inhibition rate), −0.12%.
